# Laboratory results reported in patent US6737383B1, “Herbicidal oxadiazolidines” (priority 1999, dated 2004).
# What was measured:
# wild oat = test: Test B pre/postemergence wild oat; type: in vivo, Avena fatua
# Outline: (§1)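 Herbicidal effect was estimated by eye on a ten-point control scale after plants spent twelve to sixteen days in a greenhouse following soil or foliar treatment. Foliar sprays targeted plants at one to four leaves; all doses were formulated in a non-phytotoxic solvent with surfactant.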
# smallflower flatsedge = test: Test B flood test smallflower flatsedge; type: in vivo, Cyperus difformis
# Outline: (§2)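 Each value is a visual injury score relative to controls, with 10 meaning complete control and 0 no effect. Evaluation took place twelve to sixteen days after the 2-leaf-stage plants were treated and kept in the greenhouse.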
# giant foxtail = test: Test B pre/postemergence giant foxtail; type: in vivo, Setaria faberii
# Outline: as §1
# rape = test: Test B pre/postemergence rape; type: in vivo, Brassica napus
# Outline: as §1
# corn = test: Test B pre/postemergence corn; type: in vivo, Zea mays
# Outline: as §1
# pigweed = test: Test B pre/postemergence pigweed; type: in vivo, Amaranthus retroflexus
# Outline: as §1
# cocklebur = test: Test B pre/postemergence cocklebur; type: in vivo, Xanthium strumarium
# Outline: as §1
# surinam grass = test: Test B pre/postemergence surinam grass; type: in vivo, Brachiaria decumbens
# Outline: as §1
# sugar beet = test: Test B pre/postemergence sugar beet; type: in vivo, Beta vulgaris
# Outline: as §1
# wheat = test: Test B pre/postemergence wheat; type: in vivo, Triticum aestivum
# Outline: as §1
# purple nutsedge = test: Test B pre/postemergence purple nutsedge; type: in vivo, Cyperus rotundus
# Outline: as §1
# morningglory = test: Test B pre/postemergence morningglory; type: in vivo, Ipomoea hederacea
# Outline: as §1
# rice = test: Test B flood test rice; type: in vivo, Oryza sativa
# Outline: as §2
# duck salad = test: Test B flood test duck salad; type: in vivo, Heteranthera limosa
# Outline: as §2
# velvetleaf = test: Test B pre/postemergence velvetleaf; type: in vivo, Abutilon theophrasti
# Outline: as §1
# crabgrass = test: Test B pre/postemergence crabgrass; type: in vivo, Digitaria sanguinalis
# Outline: as §1
# bamyardgrass = test: Test B flood test barnyardgrass; type: in vivo, Echinochloa crus-galli
# Outline: as §2
# soybean = test: Test B pre/postemergence soybean; type: in vivo, Glycine max
# Outline: as §1
# blackgrass = test: Test B pre/postemergence blackgrass; type: in vivo, Alopecurus myosuroides
# Outline: as §1
# [1] = Postemergence, Rate 125 g/ha, scale 0 to 10, 0 is no effect, 10 is complete control
# [2] = Postemergence, Rate 500 g/ha, scale 0 to 10, 0 is no effect, 10 is complete control
# [3] = Preemergence, Rate 62 g/ha, scale of 0 to 10 where 0 is no effect and 10 is complete control
# [4] = Preemergence, Rate 125 g/ha, scale 0 to 10, 0 is no effect, 10 is complete control
# [5] = Preemergence, Rate 500 g/ha, scale of 0 to 10 where 0 is no effect and 10 is complete control
# [6] = Rate 62 g/ha, Postemergence, scale 0 to 10 (0 no effect, 10 complete control)
# [7] = Rate 62 g/ha, flood test species, Pre-emergence, visual evaluation after twelve to sixteen days
# [8] = Rate 125 g/ha, under heading Pre-emergence, flood test species, visual evaluation after twelve to sixteen days
# [9] = Rate 250 g/ha, Pre-emergence (flood test species), scale 0 to 10, 0 is no effect, 10 is complete control
# [10] = Rate 500 g/ha, Pre-emergence section of Table B, 0 to 10 scale (0 no effect, 10 complete control)
# [11] = Postemergence, Rate 250 g/ha, scale 0 to 10
# [12] = Preemergence, Rate 250 g/ha, scale 0 to 10, 0 is no effect, 10 is complete control
compound,measurement,setting,value
CC(C)N(C(=O)n1oc(=O)n(CC2=NCCO2)c1=O)c1ccccc1 [Compound 495],Wild oats plant response rating,wild oat; [1],0
same,"Plant response rating, Wild oats",wild oat; [2],0
same,"Plant response rating, Wild oats",wild oat; [3],0
same,Wild oats plant response rating,wild oat; [4],0
same,Wild oats plant response rating,wild oat; [5],0
same,Wild oats plant response rating,wild oat; [6],0
same,"Plant response rating, S. Flatsedge (0 to 10 scale, 0 is no effect, 10 is complete control)",smallflower flatsedge; [7],0
same,"S. Flatsedge plant response rating (0 to 10 scale, 0 is no effect, 10 is complete control)",smallflower flatsedge; [8],0
same,S. Flatsedge plant response rating,smallflower flatsedge; [9],0
same,S. Flatsedge plant response rating,smallflower flatsedge; [10],0
same,Giant foxtail plant response rating,giant foxtail; [1],0
same,"Plant response rating, Giant foxtail",giant foxtail; [2],0
same,"Plant response rating, Giant foxtail",giant foxtail; [3],0
same,Giant foxtail plant response rating,giant foxtail; [4],0
same,Giant foxtail plant response rating,giant foxtail; [5],0
same,Giant foxtail plant response rating,giant foxtail; [6],0
same,Rape plant response rating,rape; [1],0
same,"Plant response rating, Rape",rape; [2],0
same,"Plant response rating, Rape",rape; [3],0
same,Rape plant response rating,rape; [4],0
same,Rape plant response rating,rape; [5],0
same,Rape plant response rating,rape; [6],0
same,Corn plant response rating,corn; [1],0
same,Corn plant response rating,corn; [11],0
same,"Plant response rating, Corn",corn; [2],0
same,"Plant response rating, Corn",corn; [3],0
same,Corn plant response rating,corn; [4],0
same,Corn plant response rating,corn; [5],0
same,Corn plant response rating,corn; [6],0
same,Redroot pigweed plant response rating,pigweed; [1],0
same,"Plant response rating, Redroot pigweed",pigweed; [2],0
same,"Plant response rating, Redroot pigweed",pigweed; [3],0
same,Redroot pigweed plant response rating,pigweed; [4],0
same,Redroot pigweed plant response rating,pigweed; [5],0
same,Redroot pigweed plant response rating,pigweed; [6],0
same,Cocklebur plant response rating,cocklebur; [1],0
same,Cocklebur plant response rating,cocklebur; [11],0
same,"Plant response rating, Cocklebur",cocklebur; [2],0
same,"Plant response rating, Cocklebur",cocklebur; [3],0
same,Cocklebur plant response rating,cocklebur; [4],0
same,Cocklebur plant response rating,cocklebur; [12],0
same,Cocklebur plant response rating,cocklebur; [5],0
same,Cocklebur plant response rating,cocklebur; [6],0
same,B. signalgrass plant response rating,surinam grass; [1],0
same,B. signalgrass plant response rating,"surinam grass; Postemergence, Rate 250 g/ha, scale 0 to 10, 0 no effect, 10 complete control",0
same,"Plant response rating, B. signalgrass",surinam grass; [2],0
same,"Plant response rating, B. signalgrass",surinam grass; [3],0
same,B. signalgrass plant response rating,surinam grass; [4],0
same,B. signalgrass plant response rating,surinam grass; [12],0
same,B. signalgrass plant response rating,"surinam grass; Preemergence, Rate 500 g/ha, scale 0 to 10, 0 is no effect, 10 is complete control",0
same,B. signalgrass plant response rating,surinam grass; [6],0
same,Sugarbeets plant response rating,sugar beet; [1],0
same,"Plant response rating, Sugarbeets",sugar beet; [2],0
same,"Plant response rating, Sugarbeets",sugar beet; [3],0
same,Sugarbeets plant response rating,sugar beet; [4],0
same,Sugarbeets plant response rating,sugar beet; [5],0
same,Sugarbeets plant response rating,sugar beet; [6],0
same,Wheat plant response rating,wheat; [1],0
same,"Plant response rating, Wheat",wheat; [2],0
same,"Plant response rating, Wheat",wheat; [3],0
same,Wheat plant response rating,wheat; [4],0
same,Wheat plant response rating,wheat; [5],0
same,Wheat plant response rating,wheat; [6],0
same,Nutsedge plant response rating,purple nutsedge; [1],0
same,"Plant response rating, Nutsedge",purple nutsedge; [2],0
same,"Plant response rating, Nutsedge",purple nutsedge; [3],0
same,Nutsedge plant response rating,purple nutsedge; [4],0
same,Nutsedge plant response rating,purple nutsedge; [5],0
same,Nutsedge plant response rating,purple nutsedge; [6],0
same,Morningglory plant response rating,morningglory; [1],1
same,"Plant response rating, Morningglory",morningglory; [2],7
same,"Plant response rating, Morningglory",morningglory; [3],0
same,Morningglory plant response rating,morningglory; [4],0
same,Morningglory plant response rating,morningglory; [5],0
same,Morningglory plant response rating,morningglory; [6],1
same,"Plant response rating, Rice (0 to 10 scale, 0 is no effect, 10 is complete control)",rice; [7],0
same,"Rice plant response rating (0 to 10 scale, 0 is no effect, 10 is complete control)",rice; [8],0
same,Rice plant response rating,rice; [9],0
same,Rice plant response rating,rice; [10],0
same,"Plant response rating, Ducksalad (0 to 10 scale, 0 is no effect, 10 is complete control)",duck salad; [7],0
same,"Ducksalad plant response rating (0 to 10 scale, 0 is no effect, 10 is complete control)",duck salad; [8],0
same,Ducksalad plant response rating,duck salad; [9],0
same,Ducksalad plant response rating,duck salad; [10],0
same,Velvetleaf plant response rating,velvetleaf; [1],0
same,"Plant response rating, Velvetleaf",velvetleaf; [2],0
same,"Plant response rating, Velvetleaf",velvetleaf; [3],0
same,Velvetleaf plant response rating,velvetleaf; [4],0
same,Velvetleaf plant response rating,velvetleaf; [5],0
same,Velvetleaf plant response rating,velvetleaf; [6],0
same,Crabgrass plant response rating,crabgrass; [1],0
same,Crabgrass plant response rating,crabgrass; [11],0
same,"Plant response rating, Crabgrass",crabgrass; [2],0
same,"Plant response rating, Crabgrass",crabgrass; [3],0
same,Crabgrass plant response rating,crabgrass; [4],0
same,Crabgrass plant response rating,crabgrass; [5],0
same,Crabgrass plant response rating,crabgrass; [6],0
same,"Plant response rating, Barnyardgrass (0 to 10 scale, 0 is no effect, 10 is complete control)",bamyardgrass; [7],0
same,"Barnyardgrass plant response rating (0 to 10 scale, 0 is no effect, 10 is complete control)",bamyardgrass; [8],0
same,Barnyardgrass plant response rating,bamyardgrass; [9],0
same,Barnyardgrass plant response rating,bamyardgrass; [10],0
same,Soybean plant response rating,soybean; [1],0
same,"Plant response rating, Soybean",soybean; [2],0
same,"Plant response rating, Soybean",soybean; [3],0
same,Soybean plant response rating,soybean; [4],0
same,Soybean plant response rating,soybean; [5],0
same,Soybean plant response rating,soybean; [6],0
same,Blackgrass plant response rating,blackgrass; [1],0
same,Blackgrass plant response rating,blackgrass; [11],0
same,"Plant response rating, Blackgrass",blackgrass; [2],0
same,"Plant response rating, Blackgrass",blackgrass; [3],0
same,Blackgrass plant response rating,blackgrass; [4],0
same,Blackgrass plant response rating,blackgrass; [12],0
same,Blackgrass plant response rating,blackgrass; [5],0
same,Blackgrass plant response rating,blackgrass; [6],0
